Literature values as cited in patent US20030082109A1, “Dextrorotary nicotine for smoking cessation” (priority 2001, published 2003).
Read-outs that look alike come from different tables or passages of the source.

Experiments:
living organisms = conditions: compared with l-isomer nicotine, found and reported
[1] = given amount of d-isomer vs like amount of natural l-isomer, in a person
[2] = use as alternative alkaloid in smoking substitute; found and reported

CN1CCCC1c1cccnc1 (stereo not drawn) [d-isomer of nicotine, 1 methyl-2-(3-Pyridyl) pyrrolidine]
toxicity relative to the natural tobacco-derived l-isomer of nicotine (living organisms): one half as toxic
toxicity relative to the natural tobacco-derived l-isomer of nicotine (living organisms; listed as dextrorotary isomer of nicotine): half as toxic
sensations and satisfaction relative to a like amount of l-isomer nicotine [1]: same sensations and satisfaction

CN1[C@@H](CC(=O)c2ccccc2)CCC[C@H]1C[C@H](O)c1ccccc1 [lobeline]
adverse side effects [2]: adverse side effects, which are worse than tobacco withdrawal symptoms
